Data from patent publication US9248142B2, “Non-hormonal female contraceptive” (University of Florida Research Foundation, Inc., priority 2010, dated 2016).
Where two headings read alike, the source gives them in different places.

Legend:
Foxo3a mRNA [1] = test: Foxo3a mRNA by real-time RT-PCR in SKOV3 cells treated with 2-deoxyglucose; format: cell-based, human
From the text: In another embodiment, the subject invention relates to a method for decreasing the fertility of a subject, comprising administering a therapeutically effective amount of a glucose analog to the subject, wherein the glucose analog comprises one or more of (i) 2-deoxyglucose (2DG) or a combination of 2DG with chemical derivatives of 2DG with similarly documented ovarian activity; (ii) D-mannoheptulose; or (iii) 5-thio-D-glucose; and the administering step inhibits ovulation in the female subject. In a further embodiment, the glucose analog elevates the production of FOXO3a. In yet a further embodiment, FOXO3a prevents activation of oocytes during follicle development. In another embodiment, a therapeutically effective amount of at least one glucose analog is co-administered to the subject. In one example, FOXO3a mRNA and protein levels are induced in response to amino acid and glucose_deprivation in human ovarian carcinoma (SKOV3) cells. In order to establish a connection between FOXO3a and glucose deprivation, one example was used in which human ovarian carcinoma (SKOV3) cells were treated with 2-deoxyglucose (2-DOG or 2-DG) followed by mRNA analysis by real-time RT-PCR (FIG. 1) and immunoblot analysis (FIG. 2). 2-DG has been effectively employed as an alternative to glucose (deprivation) depletion. […] The fold increases were determined using a ΔΔCT method with cyclophilin A as the internal reference gene for each sample. […] Control cells (FED/MEM) were given complete media.

Foxo3a mRNA [2] = test: Pilot study in mice injected IP daily for two weeks: ovary Foxo3a mRNA by real-time RT-PCR; format: in vivo; conditions: for Foxo3a mRNA levels in ovary, increase: two weeks, 5-week-old mice
Protocol: (§1) Not to be bound to any particular mechanism, it is believed that in one aspect of the present invention, by administering a therapeutically effective amount of the non-hormonal contraceptive composition to a female subject, cellular signals are induced activating a regulatory factor which blocks maturation of the […] and suppresses ovulation. In one example, a pilot study was conducted in which 5-week-old mice were intraperitoneally (IP) injected daily with 2-DG for two weeks. To determine an effective dose, 100, 300 and 600 mg/kg 2-DG was tested, with 6 animals in each treated group and 6 mice in the control group (0) injected with PBS. Following the two week study, the mice were sacrificed and the ovaries removed for mRNA and histological analyses. […] The contralateral ovary was used for histological analysis of the total numbers of follicle types in the entire ovary. Ovaries were fixed in 10% neutral buffered formalin, embedded in paraffin, then serially sectioned at 8 μm and stained with hematoxylin. Follicles were counted in every fifth section with random start. Follicles were classified following Pedersen and Peters guidelines. Most relevant to the data presented here, type 3a and 3b follicles were classified as having a single layer of granulosa cells surrounding the oocyte, and the two were distinguished from each other by the number of granulosa cells in that single layer. […] Only follicles containing an oocyte with a clearly visible nucleus were scored, to ensure that each follicle was counted only once. It should be noted that type 3a follicles are the first stage of folliculogenesis from the primordial follicle, the dormant stage at which FOXO3a acts as a brake. After follicles were counted in each fifth section, the total number of each type was multiplied by a correction factor of five to estimate total number of follicles in each ovary. The collective data is shown in the bar graph in FIG. 5. […] This is particularly advantageous as it allows lower dosages of one of the analogs or dosages of two or more analogs in therapeutic compositions. […]

FOXO3a = test: Mouse ovarian organ culture, FOXO3a mRNA and protein expression; format: cell-based
[3] = animal metabolic and nutritional studies, human nutritional and cancer studies/clinical trials; cited from earlier work
type 3a follicles = test: Pilot study in mice injected IP daily for two weeks: histological count of follicle types per ovary; format: in vivo; conditions: for Reduction in number of type 3a follicles: two weeks, vs PBS controls
Protocol: as §1

[4] = cited from earlier work
FOXO3a protein = test: Immunoblot analysis of FOXO3a protein levels in SKOV3 cells; format: cell-based, human; conditions: vs FED/MEM control
From the text: In another embodiment, the subject invention relates to a method for decreasing the fertility of a subject, comprising administering a therapeutically effective amount of a glucose analog to the subject, wherein the glucose analog comprises one or more of (i) 2-deoxyglucose (2DG) or a combination of 2DG with chemical derivatives of 2DG with similarly documented ovarian activity; (ii) D-mannoheptulose; or (iii) 5-thio-D-glucose; and the administering step inhibits ovulation in the female subject. In a further embodiment, the glucose analog elevates the production of FOXO3a. In yet a further embodiment, FOXO3a prevents activation of oocytes during follicle development. In another embodiment, a therapeutically effective amount of at least one glucose analog is co-administered to the subject. In one example, FOXO3a mRNA and protein levels are induced in response to amino acid and glucose_deprivation in human ovarian carcinoma (SKOV3) cells. In order to establish a connection between FOXO3a and glucose deprivation, one example was used in which human ovarian carcinoma (SKOV3) cells were treated with 2-deoxyglucose (2-DOG or 2-DG) followed by mRNA analysis by real-time RT-PCR (FIG. 1) and immunoblot analysis (FIG. 2). […] The fold increases were determined using a ΔΔCT method with cyclophilin A as the internal reference gene for each sample. […]

[5] = women, cited from earlier work
[6] = preliminary dose response studies, mice injected for two weeks

Row | Compound | Duration of Foxo3a mRNA induction (Foxo3a mRNA [1]; SKOV3 cells) | Foxo3a mRNA induction (Foxo3a mRNA [1]; SKOV3 cells, by 4 h, ΔΔCT vs cyclophilin A) | FOXO3a mRNA and protein expression (Foxo3a mRNA [1]; human ovarian carcinoma cells in culture) | Foxo3a mRNA levels in ovary, increase (Foxo3a mRNA [2]; 100 mg/kg IP daily) | Foxo3a mRNA levels in ovary, increase (Foxo3a mRNA [2]; 600 mg/kg IP daily) | Increase in mRNA synthesis of FOXO3a in the ovary (Foxo3a mRNA [2]; [6]) | FOXO3a mRNA and protein expression (FOXO3a) | Side effects [3] | Reduction in number of type 3a follicles (type 3a follicles; 100 mg/kg IP daily) | Reduction in number of type 3a follicles (type 3a follicles; 600 mg/kg IP daily) | Decrease in maturation of primary follicles (type 3a follicles; [6]) | Solubility in aqueous solutions [4] | Foxo3a protein levels (FOXO3a protein) | Loss in bone mineral density ([5]; after 24 months of use, average) | Loss in bone mineral density ([5]; between months 12 and 24)
1 | O=CC[C@@H](O)[C@H](O)[C@H](O)CO [2-DG, 2-deoxyglucose] | maintained out to 24 h | approximately 2.5 fold | specific induction | ~4 fold | ~2.75 fold | 2-4 fold | specific induction | no documented side effects | ~60% | 32% | 32-60% | freely soluble | increased | – | –
2 | N[C@H](CO)Cc1c[nH]cn1 [His-OH, histidinol, reference compound] | – | – | – | – | – | – | – | – | – | – | – | – | increased | – | –
3 | CC(=O)O[C@]1(C(C)=O)CC[C@H]2[C@@H]3C[C@H](C)C4=CC(=O)CC[C@]4(C)[C@H]3CC[C@@]21C [depot medroxyprogesterone acetate, medroxyprogesterone acetate] | – | – | – | – | – | – | – | – | – | – | – | – | – | 5.7% | 3.2%
